{"source": "patent US4808711A", "about": "“Cephalosporin derivatives” (Sankei Pharmaceutical Co., Ltd., priority 1985, dated 1989)", "format_in_all_cases": "cell-based", "key": {"[1]": {"tested_on": "S. flexneri 2a CDC 4807-62", "assay": "MIC, S. flexneri 2a CDC 4807-62", "protocol": "(§1) The minimum inhibition concentrations (MIC) of the compounds obtained by the present invention were measured according to the standard method of Japanese Chemotherapy Association."}, "[2]": {"tested_on": "S. paratyphi B", "assay": "MIC, S. paratyphi B", "protocol": "as §1"}, "[3]": {"tested_on": "P. aeruginosa ATCC9721", "assay": "MIC, P. aeruginosa ATCC9721", "settings": "Pseudomonas aeruginosa, ATCC9721", "protocol": "as §1"}, "[4]": {"tested_on": "S. faecalis IFO3826", "assay": "MIC, S. faecalis IFO3826", "protocol": "as §1"}, "[5]": {"tested_on": "S. aureus 209P JC-1", "assay": "MIC, S. aureus 209P JC-1", "protocol": "as §1"}, "[6]": {"tested_on": "S. sonnei SH72-415", "assay": "MIC, S. sonnei SH72-415", "protocol": "as §1"}, "[7]": {"tested_on": "P. vulgaris ATCC6398", "assay": "MIC, P. vulgaris ATCC6398", "protocol": "as §1"}, "[8]": {"tested_on": "S. paratyphi A 144-12-93", "assay": "MIC, S. paratyphi A 144-12-93", "protocol": "as §1"}, "[9]": {"tested_on": "S. newport 563", "assay": "MIC, S. newport 563", "protocol": "as §1"}, "[10]": {"tested_on": "E. cloacae ATCC13047", "assay": "MIC, E. cloacae ATCC13047", "settings": "Enterobacter cloacae", "protocol": "as §1"}, "[11]": {"tested_on": "S. epidermidis ATCC14990", "assay": "MIC, S. epidermidis ATCC14990", "protocol": "as §1"}, "[12]": {"tested_on": "S. aureus Smith", "assay": "MIC, S. aureus Smith", "protocol": "as §1"}, "[13]": {"tested_on": "S. flexneri Y NCTC 9730", "assay": "MIC, S. flexneri Y NCTC 9730", "protocol": "as §1"}, "[14]": {"tested_on": "B. subtilis ATCC6633", "assay": "MIC, B. subtilis ATCC6633", "protocol": "as §1"}, "[15]": {"tested_on": "S. marcescens IFO12648", "assay": "MIC, S. marcescens IFO12648", "protocol": "as §1"}, "[16]": {"tested_on": "S. dysenteriae 4379-60", "assay": "MIC, S. dysenteriae 4379-60", "protocol": "as §1"}, "[17]": {"tested_on": "E. coli ATCC25922", "assay": "MIC, E. coli ATCC25922", "protocol": "as §1"}, "[18]": {"tested_on": "S. typhi 1099-77", "assay": "MIC, S. typhi 1099-77", "protocol": "as §1"}, "[19]": {"tested_on": "P. mirabilis IFO3849", "assay": "MIC, P. mirabilis IFO3849", "protocol": "as §1"}, "[20]": {"tested_on": "C. freundii IFO12681", "assay": "MIC, C. freundii IFO12681", "protocol": "as §1"}, "[21]": {"tested_on": "S. typhimurium ATCC13311", "assay": "MIC, S. typhimurium ATCC13311", "protocol": "as §1"}, "[22]": {"tested_on": "S. boyadii CDC 2064-59", "assay": "MIC, S. boyadii CDC 2064-59", "protocol": "as §1"}, "[23]": {"tested_on": "P. cepacia ATCC25416", "assay": "MIC, P. cepacia ATCC25416", "protocol": "as §1"}, "[24]": {"tested_on": "S. aureus ATCC25923", "assay": "MIC, S. aureus ATCC25923", "settings": "Staphylococcus aureus, ATCC25923", "protocol": "as §1"}, "[25]": {"tested_on": "P. maltophilia ATCC13637", "assay": "MIC, P. maltophilia ATCC13637", "settings": "Stenotrophomonas maltophilia", "protocol": "as §1"}, "[26]": {"tested_on": "P. rettgeri ATCC14505", "assay": "MIC, P. rettgeri ATCC14505", "protocol": "as §1"}, "[27]": {"tested_on": "K. pneumoniae ATCC27736", "assay": "MIC, K. pneumoniae ATCC27736", "protocol": "as §1"}, "[28]": {"tested_on": "S. aureus TASAKI", "assay": "MIC, S. aureus TASAKI", "settings": "Staphylococcus aureus", "protocol": "as §1"}, "[29]": {"tested_on": "E. coli NIHJ JC-2", "assay": "MIC, E. coli NIHJ JC-2", "protocol": "as §1"}, "[30]": {"tested_on": "S. paratyphi C 33-76", "assay": "MIC, S. paratyphi C 33-76", "protocol": "as §1"}, "[31]": {"tested_on": "S. anatum 677-69", "assay": "MIC, S. anatum 677-69", "protocol": "as §1"}, "[32]": {"tested_on": "S. typhimurium IFO 12529", "assay": "MIC, S. typhimurium IFO 12529", "protocol": "as §1"}, "[33]": {"tested_on": "P. putida ATCC12633", "assay": "MIC, P. putida ATCC12633", "settings": "Pseudomonas putida", "protocol": "as §1"}, "[34]": {"tested_on": "P. vulgaris ATCC6380", "assay": "MIC, P. vulgaris ATCC6380", "protocol": "as §1"}, "[35]": {"tested_on": "P. fluorescens ATCC13525", "assay": "MIC, P. fluorescens ATCC13525", "protocol": "as §1"}, "[36]": {"settings": "Proteus vulgaris, read-out: MIC"}, "[37]": {"settings": "Salmonella enterica, read-out: MIC"}}, "note": "Like-named read-outs stand apart in the source and are kept apart here."}
{"compound": "CO[C@@]1(NC(=O)C(C(=O)O)c2ccc(O)cc2)C(=O)N2C(C(=O)O)=C(CSc3nnnn3C)CO[C@@H]21", "note": "(some centres unmarked) [LMOX, latamoxiceph]", "values": [{"measurement": "MIC", "setting": "[1]; Shigella flexneri, read-out: MIC", "value": 0.1, "unit": "µg/mL"}, {"measurement": "MIC", "setting": "[2]; Salmonella enterica, PARATYPHI", "value": 0.05, "unit": "µg/mL"}, {"measurement": "MIC", "setting": "[3]", "value": 3.13, "unit": "µg/mL"}, {"measurement": "MIC", "setting": "[4]; Enterococcus faecalis, read-out: MIC", "value": "> 100", "unit": "µg/mL"}, {"measurement": "MIC", "setting": "[5]; Staphylococcus aureus, 209P", "value": 3.13, "unit": "µg/mL"}, {"measurement": "MIC", "setting": "[6]; Shigella sonnei, SH72415, read-out: MIC", "value": 0.1, "unit": "µg/mL"}, {"measurement": "MIC", "setting": "[7]; [36]", "value": 0.2, "unit": "µg/mL"}, {"measurement": "MIC", "setting": "[8]; Salmonella enterica, PARATYPHI", "value": 0.2, "unit": "µg/mL"}, {"measurement": "MIC", "setting": "[9]; [37]", "value": 0.1, "unit": "µg/mL"}, {"measurement": "MIC", "setting": "[10]", "value": 0.78, "unit": "µg/mL"}, {"measurement": "MIC", "setting": "[11]; Staphylococcus epidermidis, read-out: MIC", "value": 6.25, "unit": "µg/mL"}, {"measurement": "MIC", "setting": "[12]; Staphylococcus aureus, read-out: MIC", "value": 6.25, "unit": "µg/mL"}, {"measurement": "MIC", "setting": "[13]; Shigella flexneri, NCTC9730, read-out: MIC", "value": 3.13, "unit": "µg/mL"}, {"measurement": "MIC", "setting": "[14]; Bacillus subtilis, ATCC6633", "value": 3.13, "unit": "µg/mL"}, {"measurement": "MIC", "setting": "[15]; Serratia marcescens, read-out: MIC", "value": 0.2, "unit": "µg/mL"}, {"measurement": "MIC", "setting": "[16]; Shigella dysenteriae, 437960", "value": 0.05, "unit": "µg/mL"}, {"measurement": "MIC", "setting": "[17]; Escherichia coli, read-out: MIC", "value": 0.2, "unit": "µg/mL"}, {"measurement": "MIC", "setting": "[18]; Salmonella enterica, TYPHI", "value": 0.05, "unit": "µg/mL"}, {"measurement": "MIC", "setting": "[19]; Proteus mirabilis, read-out: MIC", "value": 0.1, "unit": "µg/mL"}, {"measurement": "MIC", "setting": "[20]; Citrobacter freundii, read-out: MIC", "value": 0.1, "unit": "µg/mL"}, {"measurement": "MIC", "setting": "[21]; [37]", "value": 0.05, "unit": "µg/mL"}, {"measurement": "MIC", "setting": "[22]", "value": 3.13, "unit": "µg/mL"}, {"measurement": "MIC", "setting": "[23]; Burkholderia cepacia, read-out: MIC", "value": 6.25, "unit": "µg/mL"}, {"measurement": "MIC", "setting": "[24]", "value": 3.13, "unit": "µg/mL"}, {"measurement": "MIC", "setting": "[25]", "value": 25, "unit": "µg/mL"}, {"measurement": "MIC", "setting": "[26]; Providencia rettgeri, read-out: MIC", "value": 0.1, "unit": "µg/mL"}, {"measurement": "MIC", "setting": "[27]; Klebsiella pneumoniae, read-out: MIC", "value": 0.05, "unit": "µg/mL"}, {"measurement": "MIC", "setting": "[28]", "value": 3.13, "unit": "µg/mL"}, {"measurement": "MIC", "setting": "[29]; Escherichia coli, NIHJJC2, read-out: MIC", "value": 0.2, "unit": "µg/mL"}, {"measurement": "MIC", "setting": "[30]; Salmonella enterica, PARATYPHI", "value": 0.025, "unit": "µg/mL"}, {"measurement": "MIC", "setting": "[31]; Salmonella enterica, 67769, read-out: MIC", "value": 0.1, "unit": "µg/mL"}, {"measurement": "MIC", "setting": "[32]; [37]", "value": 0.1, "unit": "µg/mL"}, {"measurement": "MIC", "setting": "[33]", "value": 25, "unit": "µg/mL"}, {"measurement": "MIC", "setting": "[34]; [36]", "value": 0.2, "unit": "µg/mL"}]}
{"compound": "cephazoline [CAZ]", "values": [{"measurement": "MIC", "setting": "[1]", "value": 0.2, "unit": "µg/mL"}, {"measurement": "MIC", "setting": "[2]; S. paratyphi B", "value": 0.78, "unit": "µg/mL"}, {"measurement": "MIC", "setting": "[4]", "value": "> 100", "unit": "µg/mL"}, {"measurement": "MIC", "setting": "[5]; S. aureus 209P JC-1", "value": 0.78, "unit": "µg/mL"}, {"measurement": "MIC", "setting": "[6]", "value": 0.39, "unit": "µg/mL"}, {"measurement": "MIC", "setting": "[7]", "value": 0.1, "unit": "µg/mL"}, {"measurement": "MIC", "setting": "[35]", "value": 3.13, "unit": "µg/mL"}, {"measurement": "MIC", "setting": "[8]; S. paratyphi A 144-12-93", "value": 1.56, "unit": "µg/mL"}, {"measurement": "MIC", "setting": "[9]", "value": 0.78, "unit": "µg/mL"}, {"measurement": "MIC", "setting": "[11]", "value": 6.25, "unit": "µg/mL"}, {"measurement": "MIC", "setting": "[12]", "value": 6.25, "unit": "µg/mL"}, {"measurement": "MIC", "setting": "[13]", "value": 0.39, "unit": "µg/mL"}, {"measurement": "MIC", "setting": "[14]; B. subtilis ATCC6633", "value": 6.25, "unit": "µg/mL"}, {"measurement": "MIC", "setting": "[15]", "value": 0.39, "unit": "µg/mL"}, {"measurement": "MIC", "setting": "[16]; S. dysenteriae 4379-60", "value": 0.2, "unit": "µg/mL"}, {"measurement": "MIC", "setting": "[17]", "value": 0.39, "unit": "µg/mL"}, {"measurement": "MIC", "setting": "[18]; S. typhi 1099-77", "value": 0.39, "unit": "µg/mL"}, {"measurement": "MIC", "setting": "[19]", "value": 0.2, "unit": "µg/mL"}, {"measurement": "MIC", "setting": "[20]", "value": 0.39, "unit": "µg/mL"}, {"measurement": "MIC", "setting": "[21]", "value": 0.39, "unit": "µg/mL"}, {"measurement": "MIC", "setting": "[23]", "value": 6.25, "unit": "µg/mL"}, {"measurement": "MIC", "setting": "[26]", "value": 0.39, "unit": "µg/mL"}, {"measurement": "MIC", "setting": "[27]", "value": 0.78, "unit": "µg/mL"}, {"measurement": "MIC", "setting": "[29]", "value": 0.78, "unit": "µg/mL"}, {"measurement": "MIC", "setting": "[30]; S. paratyphi C 33-76", "value": 0.1, "unit": "µg/mL"}, {"measurement": "MIC", "setting": "[31]", "value": 0.78, "unit": "µg/mL"}, {"measurement": "MIC", "setting": "[32]", "value": 0.78, "unit": "µg/mL"}, {"measurement": "MIC", "setting": "[34]", "value": 0.2, "unit": "µg/mL"}]}
